Test results as given in US20210254272A1, “TEXTILES HAVING ANTIMICROBIAL PROPERTIES” (Livinguard AG, priority 2015, published 2021).

Tested on: E. coli (ATCC 25922)
Assay: AATCC Test Method 100-2012 antibacterial activity of the treated textile, after 25 washes and 12 abrasion cycles, contact time 60 minutes
Type: cell-based
Settings: for Log reduction of antimicrobial performance: 1% o.w.f; for Log reduction of antimicrobial performance in 100 GSM Polyester fabric / Log reduction of antimicrobial performance in 100 GSM cotton fabric / Log reduction of antimicrobial performance in 300 GSM Polyester fabric / Log reduction of antimicrobial performance in 300 GSM cotton fabric / Performance Test-Log reduction of antimicrobial performance: 2 min; for Performance Test-Log reduction of antimicrobial performance: pad process, single agent 5 gm/lit
Procedure: The antibacterial activity of the textile was tested in accordance with AATCC Test Method 100-2012. Prior to the test, the fabric was cut into coupons of 2×4 inches and washed separately 25 times, and exposed to 12 abrasion cycles, as per US EPA protocol 90072PA4 (described further below). The tests were made against E. coli (ATCC 25922). Contact time was 60 minutes, after inoculating with 10^8 CFU per coupon.

[1] = exhaust 80° C., 60 min, curing 180° C., dosage 0.1% o.w.f
[2] = exhaust 80° C., 60 min, curing 180° C., dosage 0.2% o.w.f
[3] = exhaust 80° C., 60 min, curing 180° C., dosage 0.5% o.w.f
[4] = exhaust 80° C., 60 min, curing 180° C., dosage 0.8% o.w.f
[5] = exhaust 80° C., 60 min, curing 180° C., dosage 1.0% o.w.f

Silver
Log reduction of antimicrobial performance of each active ingredient (exhaust 60° C., solution dosage 1% o.w.f, process time 60 min): 1.1 Log | Log reduction of antimicrobial performance of each active ingredient (exhaust 60° C., solution dosage 1% o.w.f, process time 90 min): 1.3 Log | Log reduction of antimicrobial performance of each active ingredient (exhaust 60° C., solution dosage 1% o.w.f, process time 120 min): 1.5 Log | Log reduction of antimicrobial performance of each active ingredient (exhaust 60° C., solution dosage 1% o.w.f, process time 180 min): 1.8 Log | Log reduction of antimicrobial performance of each active ingredient (exhaust 60° C., solution dosage 1% o.w.f, process time 240 min): 1.75 Log | Log reduction of antimicrobial performance (exhaust 80° C., 60 min, curing 170° C., curing dwell time 0.5 min): 0.2 Log | Log reduction of antimicrobial performance (exhaust 80° C., 60 min, curing 170° C., curing dwell time 1.0 min): 0.5 Log | Log reduction of antimicrobial performance (exhaust 80° C., 60 min, curing 170° C., curing dwell time 1.5 min): 0.7 Log | Log reduction of antimicrobial performance (exhaust 80° C., 60 min, curing 170° C., curing dwell time 2.0 min): 1.6 Log | Log reduction of antimicrobial performance (exhaust 80° C., 60 min, curing 170° C., curing dwell time 2.5 min): 1.1 Log | Log reduction of antimicrobial performance (exhaust 80° C., 60 min, curing 170° C., curing dwell time 3.0 min): 0.7 Log | Log reduction of antimicrobial performance (exhaust 80° C., 60 min, curing 180° C., curing dwell time 0.5 min): 1.1 Log | Log reduction of antimicrobial performance (exhaust 80° C., 60 min, curing 180° C., curing dwell time 1.0 min): 1.3 Log | Log reduction of antimicrobial performance (exhaust 80° C., 60 min, curing 180° C., curing dwell time 1.5 min): 1.5 Log | Log reduction of antimicrobial performance (exhaust 80° C., 60 min, curing 180° C., curing dwell time 2.0 min): 3.8 Log | Log reduction of antimicrobial performance (exhaust 80° C., 60 min, curing 180° C., curing dwell time 2.5 min): 3.7 Log | Log reduction of antimicrobial performance (exhaust 80° C., 60 min, curing 180° C., curing dwell time 3.0 min): 3.5 Log | Log reduction of antimicrobial performance (exhaust 80° C., 60 min, curing 190° C., curing dwell time 0.5 min): 0.6 Log | Log reduction of antimicrobial performance (exhaust 80° C., 60 min, curing 190° C., curing dwell time 1.0 min): 0.9 Log | Log reduction of antimicrobial performance (exhaust 80° C., 60 min, curing 190° C., curing dwell time 1.5 min): 1.5 Log | Log reduction of antimicrobial performance (exhaust 80° C., 60 min, curing 190° C., curing dwell time 2.0 min): 2.79 Log | Log reduction of antimicrobial performance (exhaust 80° C., 60 min, curing 190° C., curing dwell time 2.5 min): 2.2 Log | Log reduction of antimicrobial performance (exhaust 80° C., 60 min, curing 190° C., curing dwell time 3.0 min): 1.1 Log | Log reduction of antimicrobial performance (exhaust 80° C., 60 min, curing temperature 100 ° C.): 0.21 Log | Log reduction of antimicrobial performance (exhaust 80° C., 60 min, curing temperature 120 ° C.): 0.32 Log | Log reduction of antimicrobial performance (exhaust 80° C., 60 min, curing temperature 140 ° C.): 0.99 Log | Log reduction of antimicrobial performance (exhaust 80° C., 60 min, curing temperature 160 ° C.): 1.04 Log | Log reduction of antimicrobial performance (exhaust 80° C., 60 min, curing temperature 165 ° C.): 1.12 Log | Log reduction of antimicrobial performance (exhaust 80° C., 60 min, curing temperature 170 ° C.): 1.59 Log | Log reduction of antimicrobial performance (exhaust 80° C., 60 min, curing temperature 175 ° C.): 2.05 Log | Log reduction of antimicrobial performance (exhaust 80° C., 60 min, curing temperature 180 ° C.): 2.78 Log | Log reduction of antimicrobial performance (exhaust 80° C., 60 min, curing temperature 185 ° C.): 2.79 Log | Log reduction of antimicrobial performance (exhaust 80° C., 60 min, curing temperature 190 ° C.): 2.8 Log | Log reduction of antimicrobial performance (exhaust 80° C., 60 min, curing temperature 195 ° C.): 2.82 Log | Log reduction of antimicrobial performance in 100 GSM Polyester fabric [1]: 0.56 Log | Log reduction of antimicrobial performance in 100 GSM cotton fabric [1]: 0.55 Log | Log reduction of antimicrobial performance in 300 GSM Polyester fabric [1]: 0.54 Log | Log reduction of antimicrobial performance in 300 GSM cotton fabric [1]: 0.57 Log | Log reduction of antimicrobial performance in 100 GSM Polyester fabric [2]: 1.45 Log | Log reduction of antimicrobial performance in 100 GSM cotton fabric [2]: 1.35 Log | Log reduction of antimicrobial performance in 300 GSM Polyester fabric [2]: 1.48 Log | Log reduction of antimicrobial performance in 300 GSM cotton fabric [2]: 1.35 Log | Log reduction of antimicrobial performance in 100 GSM Polyester fabric [3]: 1.77 Log | Log reduction of antimicrobial performance in 100 GSM cotton fabric [3]: 1.67 Log | Log reduction of antimicrobial performance in 300 GSM Polyester fabric [3]: 1.79 Log | Log reduction of antimicrobial performance in 300 GSM cotton fabric [3]: 1.67 Log | Log reduction of antimicrobial performance in 100 GSM Polyester fabric [4]: 1.85 Log | Log reduction of antimicrobial performance in 100 GSM cotton fabric [4]: 1.84 Log | Log reduction of antimicrobial performance in 300 GSM Polyester fabric [4]: 1.85 Log | Log reduction of antimicrobial performance in 300 GSM cotton fabric [4]: 1.87 Log | Log reduction of antimicrobial performance in 100 GSM Polyester fabric [5]: 2.68 Log | Log reduction of antimicrobial performance in 100 GSM cotton fabric [5]: 2.87 Log | Log reduction of antimicrobial performance in 300 GSM Polyester fabric [5]: 2.65 Log | Log reduction of antimicrobial performance in 300 GSM cotton fabric [5]: 2.88 Log | Log reduction of antimicrobial performance of each active ingredient (exhaust 80° C., 60 min, dosage 1% o.w.f (test up to 5% o.w.f)): 2.35 Log | Log reduction of antimicrobial performance of each active ingredient (exhaust 80° C., 60 min, dosage 2% o.w.f): 2.36 Log | Log reduction of antimicrobial performance of each active ingredient (exhaust 80° C., 60 min, dosage 3% o.w.f): 2.37 Log | Log reduction of antimicrobial performance of each active ingredient (exhaust 80° C., 60 min, dosage 4% o.w.f): 2.38 Log | Log reduction of antimicrobial performance of each active ingredient (exhaust 80° C., 60 min, dosage 5% o.w.f): 2.41 Log | Log reduction of antimicrobial performance of each active ingredient (exhaust 80 ° C., solution dosage 1% o.w.f, process time 10 min): 0.5 Log | Log reduction of antimicrobial performance of each active ingredient (exhaust 80 ° C., solution dosage 1% o.w.f, process time 20 min): 1 Log | Log reduction of antimicrobial performance of each active ingredient (exhaust 80 ° C., solution dosage 1% o.w.f, process time 30 min): 1.4 Log | Log reduction of antimicrobial performance of each active ingredient (exhaust 80 ° C., solution dosage 1% o.w.f, process time 40 min): 1.9 Log | Log reduction of antimicrobial performance of each active ingredient (exhaust 80 ° C., solution dosage 1% o.w.f, process time 50 min): 2.4 Log | Log reduction of antimicrobial performance of each active ingredient (exhaust 80 ° C., solution dosage 1% o.w.f, process time 60 min): 2.8 Log | Log reduction of antimicrobial performance of each active ingredient (exhaust 80 ° C., solution dosage 1% o.w.f, process time 70 min): 2.8 Log | Log reduction of antimicrobial performance of each active ingredient (exhaust 80 ° C., solution dosage 1% o.w.f, process time 80 min): 2.8 Log | Log reduction of antimicrobial performance of each active ingredient (exhaust 80 ° C., solution dosage 1% o.w.f, process time 90 min): 2.9 Log | Performance Test-Log reduction of antimicrobial performance (curing 120° C.): 0.02 Log | Performance Test-Log reduction of antimicrobial performance (curing 140° C.): 0.24 Log | Performance Test-Log reduction of antimicrobial performance (curing 150° C.): 0.31 Log | Performance Test-Log reduction of antimicrobial performance (curing 160° C.): 0.53 Log
